Here are results for one substance from patent publication US20200289482A1, “CYSTIC FIBROSIS TRANSMEMBRANE CONDUCTANCE REGULATOR MODULATORS FOR TREATING AUTOSOMAL DOMINANT POLYCYSTIC KIDNEY DISEASE” (The Johns Hopkins University, priority 2017, published 2020).

The test system of one assay is Hsp27. The assay can be described thus: Cycloheximide chase, disappearance of Hsp27 in PN cells. Format: cell-based, mouse. The note with it: VX-809 10 μM with cycloheximide 25 μM. The procedure: FIG. 9A, FIG. 9B, FIG. 9C, FIG. 9D, FIG. 9E, FIG. 9F, FIG. 9G, and FIG. 9H show Hsp27, HSp70, and Hsp90 expression in PN cells treated with VX-809 and/or cycloheximide. (A) Pkd1 null (PN) cells were treated with VX-809 (10 μM) and/or with cycloheximide (25 μM) for indicated time points before being harvested for the assay. (FIG. 9A) Western blot showing expression of Hsp27, Hsp70, and Hsp90 in VX-809-(16 h), cycloheximide-treated, or control PN cells. ((FIG. 9B. (FIG. 9C, and (FIG. 9D) Columns represent averages±standard errors of Hsp27, Hsp70, and Hsp90 expression in cells treated with VX-809 and/or cycloheximide. ((FIG. 9E) Western blot showing expression of Hsp27, Hsp70, and Hsp90 in PN cells treated with VX-809+cycloheximide or control PN cells. ((FIG. 9F, (FIG. 9G, and (FIG. 9H) Columns represent averages±standard errors of Hsp27, Hsp70, and Hsp90 expression in cells treated only with cycloheximide or in control PN cells. Data were analyzed by non-parametric t-test. The experiments were repeated 3-5 times. *P<0.05, **P<0.01;
To gain more insight into the mechanism whereby VX-809 alters Hsp protein levels, translation was inhibited by using cycloheximide (35) and the disappearance of the three Hsps was monitored. […] Hsp 90 was reduced by approximately 25%, and Hsp27 was unchanged.

The test system of another assay is AC3. The assay can be described thus: Western blot of adenylyl cyclase 3 expression. The format is cell-based, mouse. As to conditions: PN cells treated with VX-809. The procedure:
FIG. 4A, FIG. 4B, FIG. 4C, FIG. 4D, and FIG. 4E show (FIG. 4A-FIG. 4B) cAMP levels are reduced by VX-809. (FIG. 4A) cAMP levels in mouse tissue were reduced by VX-809. The kidney samples (n=6) analyzed were taken from those depicted in FIG. 1. (FIG. 4B) Confluent PN and PH cells were treated with VX-809 (10 μM) or DMSO for 16 h and then treated with forskolin (100 μM) for 30 min before the cells were harvested for the assay. Columns represent means±SEM. Statistical analysis was performed using a two-tailed Student's t-test. Each set of data is from three individual wells; Note that resting cAMP is greater in PN vs PH cells as previously shown (25). Also note that forskolin caused a large increase in cAMP. A smaller increase occurred with IBMX. However, the increase induced by forskolin alone was similar to that by IBMX plus forskolin. […] (FIG. 4C, FIG. 4D, and FIG. 4E) Adenylyl cyclase expression. (FIG. 4C) Western blot showing the expression of adenylyl cyclase (AC) 6 and AC3 in treated and control PN cells. (FIG. 4D-FIG. 4E) Columns represent means±SEM of the AC3 and AC6 expression. The data were analyzed by non-parametric t-test. The experiment was repeated four times. For all graphs, *P<0.05, **P<0.01, and ***P<0.001;
There are two classes of adenylyl cyclases that are regulated by intracellular Ca^2+: one class is activated, and the other inhibited. […]
(In general: In western blotting, separated proteins are transferred to a membrane and probed.)

Turning to lumacaftor [VX-809], the “Hsp27 level over the 8-h period” value in the assay on Hsp27 was “unchanged”. Moreover, the AC3 levels entry with AC3 was “decreased”.
